Test results: US9499553B2 (CHUGAI SEIYAKU KABUSHIKI KAISHA, priority 2013, dated 2016)
Like-named read-outs stand apart in the source and are kept apart here.

Key:
human NaPi-IIb = target: T1, human NaPi-IIb (Homo sapiens, UniProt O95436); experiment: Inhibitory effect on 33PO4 uptake into human NaPi-IIb-expressing CHO cells; assay type: cell-based
T1 construct: expressed in transfected cells
T1 sequence (O95436 1-690): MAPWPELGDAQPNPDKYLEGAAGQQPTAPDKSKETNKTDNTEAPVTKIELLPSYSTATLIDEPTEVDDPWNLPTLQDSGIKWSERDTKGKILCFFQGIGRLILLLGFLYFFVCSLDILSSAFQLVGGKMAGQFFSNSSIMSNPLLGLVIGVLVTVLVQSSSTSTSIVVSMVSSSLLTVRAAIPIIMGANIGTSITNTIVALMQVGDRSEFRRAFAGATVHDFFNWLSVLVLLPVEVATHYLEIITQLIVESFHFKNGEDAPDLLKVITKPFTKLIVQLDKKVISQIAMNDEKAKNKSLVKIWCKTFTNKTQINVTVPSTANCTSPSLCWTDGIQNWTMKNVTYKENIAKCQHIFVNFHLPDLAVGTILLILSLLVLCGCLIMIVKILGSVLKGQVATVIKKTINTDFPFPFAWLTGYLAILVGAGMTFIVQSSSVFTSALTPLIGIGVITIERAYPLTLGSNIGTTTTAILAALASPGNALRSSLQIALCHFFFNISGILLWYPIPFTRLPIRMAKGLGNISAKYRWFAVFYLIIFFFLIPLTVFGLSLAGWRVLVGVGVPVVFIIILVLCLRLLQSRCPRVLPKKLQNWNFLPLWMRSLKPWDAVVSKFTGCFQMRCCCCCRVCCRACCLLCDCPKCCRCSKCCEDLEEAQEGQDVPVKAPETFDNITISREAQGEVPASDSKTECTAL
Outline: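 Stable human NaPi-IIb CHO line (G418-selected), plated and cultured overnight; ³³PO4 added in buffer A and uptake run at room temperature. Cells washed with ice-cold buffer A, then uptake counted by liquid scintillation.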

human PiT-2 = target: T2, human PiT-2 (Homo sapiens, UniProt Q08357); experiment: Inhibitory effect on 33PO4 uptake into human PiT-2-expressing CHO cells; assay type: cell-based; conditions: pH 6.5, read-out: IC50 against 33PO4 uptake into human PiT-2-expressing cells
T2 construct: expressed in transfected cells; host or cells: CHO cells
T2 sequence (Q08357 1-652): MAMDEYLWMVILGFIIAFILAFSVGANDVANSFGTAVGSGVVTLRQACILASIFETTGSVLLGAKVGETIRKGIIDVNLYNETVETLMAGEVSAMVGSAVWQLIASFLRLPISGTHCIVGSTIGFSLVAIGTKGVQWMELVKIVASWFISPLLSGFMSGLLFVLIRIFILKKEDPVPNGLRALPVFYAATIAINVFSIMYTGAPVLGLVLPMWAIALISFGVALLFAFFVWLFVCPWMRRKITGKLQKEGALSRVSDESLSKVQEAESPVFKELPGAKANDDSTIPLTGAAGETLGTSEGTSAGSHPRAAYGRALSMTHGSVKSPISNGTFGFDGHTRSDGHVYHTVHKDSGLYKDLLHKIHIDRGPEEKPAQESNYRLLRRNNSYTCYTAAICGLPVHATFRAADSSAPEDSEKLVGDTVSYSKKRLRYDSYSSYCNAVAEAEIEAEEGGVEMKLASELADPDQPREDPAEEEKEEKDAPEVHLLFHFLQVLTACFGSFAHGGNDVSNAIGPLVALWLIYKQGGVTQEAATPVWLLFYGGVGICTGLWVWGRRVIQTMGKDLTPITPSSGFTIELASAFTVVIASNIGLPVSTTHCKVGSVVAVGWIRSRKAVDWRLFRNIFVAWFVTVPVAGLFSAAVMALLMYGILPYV
Method: Test Example 4: Inhibitory Effect on ^33PO4 Uptake into Human PiT-2-Expressing Cell
(§1) CHO cells were transfected with human PiT-2 expression plasmids or empty vectors to prepare human PiT-2-expressing cells and empty vector-expressing cells. The human PiT-2-expressing cells or the empty vector-expressing cells were inoculated to a 96-well plate and incubated overnight in a CO2 incubator. […] After a given time, a 1/20 volume of buffer A containing ^33PO4 was added thereto and reacted at room temperature. After washing with ice-cold buffer A, a liquid scintillator was added to each reaction mixture, and the amount of ^33PO4 uptake was measured using TopCount. The rate of inhibition was determined according to the following expression: Rate (%) of inhibition=(1−(Amount of ^33PO4 uptake in the compound-supplemented well containing the human PiT-2-expressing cells−Amount of ^33PO4 uptake in the compound-supplemented well containing the empty vector-expressing cells)/(Amount of ^33PO4 uptake in the DMSO-supplemented well containing the human PiT-2-expressing cells −Amount of ^33PO4 uptake in the DMSO-supplemented well containing the empty vector-expressing cells))×100

[1] = tested on: adenine-induced renal failure rat; experiment: Suppressive effect on rise in serum phosphorus concentration of adenine-induced renal failure rat (0.1% in feed, 3 days); assay type: in vivo; conditions: feed or water, 72 h, 0.1% of mass concentration in feed, read-out: Rate of inhibition (%) (suppression of a rise in serum phosphorus concentration)
Source text: Test Example 5: Suppressive Effect on Rise in Serum Phosphorus Concentration of Adenine-Induced Renal Failure Rat
Adenine was forcedly administered orally to each Wistar male rat (7-8 weeks old) to impair renal functions and thereby prepare a hyperphosphatemia model (Katsumata K, Kusano K, Hirata M, Tsunemi K, Nagano N, Burke S K, Fukushima N. Sevelamer hydrochloride prevents ectopic calcification and renal osteodystrophy in chronic renal failure rats. Kidney Int. 2003 August; 64 (2): 441-50). Each test compound was mixed at a ratio of 0.1% of mass concentration with feed. The animal was fed with a given amount of the feed for 3 days. A group given feed non-supplemented with a test compound was used as a reference pathological group, and an adenine-unadministered group given feed non-supplemented with a test compound was used as a normal group. […] Serum phosphorus concentrations were measured by the Fiske-Subbarow method. The rate of suppression of a rise in serum phosphorus concentration was determined according to the following expression: Rate (%) of suppression of a rise in serum phosphorus concentration=(1−[(Serum phosphorus concentration of the test compound-treated pathological group)−(Serum phosphorus concentration of the normal group)]/[(Serum phosphorus concentration of the reference pathological group)−(Serum phosphorus concentration of the normal group)])×100

human PiT-1 = target: T3, human PiT-1 (Homo sapiens, UniProt Q8WUM9); experiment: Inhibitory effect on 33PO4 uptake into human PiT-1-expressing CHO cells; assay type: cell-based; conditions: compound 0.24, 1.2, 6 or 30 μM, pH 6.5, read-out: IC50 against 33PO4 uptake into human PiT-1-expressing cells
T3 construct: expressed in transfected cells; host or cells: CHO cells
T3 sequence (Q8WUM9 1-679): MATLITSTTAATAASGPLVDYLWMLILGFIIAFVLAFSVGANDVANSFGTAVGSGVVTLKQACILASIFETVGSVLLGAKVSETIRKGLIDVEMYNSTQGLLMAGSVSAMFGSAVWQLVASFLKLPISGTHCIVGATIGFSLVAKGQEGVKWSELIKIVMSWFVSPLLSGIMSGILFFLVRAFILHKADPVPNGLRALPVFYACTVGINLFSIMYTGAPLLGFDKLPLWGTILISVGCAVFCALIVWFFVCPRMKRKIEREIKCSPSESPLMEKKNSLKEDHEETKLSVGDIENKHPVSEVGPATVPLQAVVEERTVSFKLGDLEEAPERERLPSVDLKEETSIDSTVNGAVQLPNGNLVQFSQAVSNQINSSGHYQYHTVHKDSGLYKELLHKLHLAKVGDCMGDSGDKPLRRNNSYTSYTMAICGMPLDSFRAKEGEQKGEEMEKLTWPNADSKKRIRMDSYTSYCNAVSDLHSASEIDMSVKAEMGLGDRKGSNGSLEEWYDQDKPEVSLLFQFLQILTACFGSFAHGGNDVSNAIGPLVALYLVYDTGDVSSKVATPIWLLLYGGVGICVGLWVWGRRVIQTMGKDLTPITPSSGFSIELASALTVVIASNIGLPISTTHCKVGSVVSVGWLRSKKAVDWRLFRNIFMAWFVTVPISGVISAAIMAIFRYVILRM
Method: Test Example 3: Inhibitory Effect on ^33PO4 Uptake into Human PiT-1-Expressing Cell
as §1, with “PiT-1” for “PiT-2”, “PiT-1-expressing” for “PiT-2-expressing”

[2] = read-out: IC50 against 33PO4 uptake into human NaPi-IIb-expressing cells

SMILES | IC50 (human NaPi-IIb; read-out: IC50) | IC50 (human PiT-2) | inhibition in vivo at 0.1 %, 0.1 % in feed [1] | IC50 (human NaPi-IIb; [2]) | IC50 (human PiT-1)
C[C@]12CCCN1N(Cc1cccc(F)c1F)C(=O)C(C(=O)Nc1ccc(C(F)(F)F)cc1-c1cc(C(F)(F)F)ncn1)=C2O [Example 21, (4aR)-1-[(2,3-Difluoro-phenyl)methyl]-4-hydroxy-4a-methyl-2-oxo-N-[4-(trifluoromethyl)-2-[6-(trifluoromethyl)pyrimidin-4-yl]phenyl]-6,7-dihydro-5H-pyrrolo [1,2-b]pyridazine-3-carboxamide] | 2.8 µM | 3.6 µM | 24% | – | –
C[C@]12CCCN1N(Cc1ccc(OCCN3CCOCC3)c(F)c1F)C(=O)C(C(=O)Nc1ccc(C(F)(F)F)cc1-c1ccnc(C#N)c1)=C2O [Example 52, (4aR)-N-[2-(2-Cyanopyridin-4-yl)-4-(trifluoromethyl)phenyl]-1-[[2,3-difluoro-4-(2-morpholin-4-ylethoxy)phenyl]methyl]-4-hydroxy-4a-methyl-2-oxo-6,7-dihydro-5H-pyrrolo[1,2-b]pyridazine-3-carboxamide] | 16.8 µM | – | 20% | – | –
CN(C)CC(C)(C)COc1ccc(CN2C(=O)C(C(=O)Nc3ccc(C(F)(F)F)cc3-c3cc(C(F)(F)F)ncn3)=C(O)C3(CCCC3)N2C)c(F)c1F [Example 414, 7-(4-(3-(Dimethylamino)-2,2-dimethylpropoxy)-2,3-difluorobenzyl)-10-hydroxy-6-methyl-8-oxo-N-(4-(tri-fluoromethyl)-2-(6-(trifluoromethyl)pyrimidin-4-yl)phenyl)-6,7-diazaspiro [4.5]dec-9-ene-9-carboxamide] | – | 1.2 µM | – | 4.6 µM | 1.9 µM
COCCN(C)CCOc1ccc(CN2C(=O)C(C(=O)Nc3ccc(C(F)(F)F)cc3-c3ncnc(C(F)(F)F)c3C)=C(O)C3(CCCC3)N2C)c(F)c1F [Example 416] | – | 1.4 µM | – | 5.8 µM | 0.9 µM
CN(C[C@H](O)[C@@H](O)[C@H](O)[C@H](O)CO)C(=O)CCCOc1ccc(CN2C(=O)C(C(=O)Nc3ccc(C(F)(F)F)cc3-c3cc(C(F)(F)F)ncn3)=C(O)C3(CCCC3)N2C)c(F)c1F [Example 418, 7-[[2,3-Difluoro-4-[4-[methyl-[(2S,3R,4R,5R)-2,3,4,5,6-penta-hydroxyhexyl]amino]-4-oxobutoxy]phenyl]methyl]-10-hydroxy-6-methyl-8-oxo-N-[4-(trifluoromethyl)-2-[6-(trifluoromethyl)pyrimidin-4-yl]phenyl]-6,7-diazaspiro[4.5]dec-9-ene-9-carboxamide] | – | 4.6 µM | – | 10.9 µM | 4.1 µM
